Consider 22 compounds from patent US8618287B2, “Derivatives of triazines and uracils, their preparation and their application in human therapeutics” (Pierre Fabre Medicament, priority 2008, dated 2013).

One data set concerns the target T1, Human SCD-1 (Homo sapiens, UniProt O00767).
T1 construct: adding 125 μg of microsomal fraction of HepG2 cells; host or cells: HepG2 human hepatocarcinoma cells (microsomal fraction)
T1 sequence (O00767 1-359): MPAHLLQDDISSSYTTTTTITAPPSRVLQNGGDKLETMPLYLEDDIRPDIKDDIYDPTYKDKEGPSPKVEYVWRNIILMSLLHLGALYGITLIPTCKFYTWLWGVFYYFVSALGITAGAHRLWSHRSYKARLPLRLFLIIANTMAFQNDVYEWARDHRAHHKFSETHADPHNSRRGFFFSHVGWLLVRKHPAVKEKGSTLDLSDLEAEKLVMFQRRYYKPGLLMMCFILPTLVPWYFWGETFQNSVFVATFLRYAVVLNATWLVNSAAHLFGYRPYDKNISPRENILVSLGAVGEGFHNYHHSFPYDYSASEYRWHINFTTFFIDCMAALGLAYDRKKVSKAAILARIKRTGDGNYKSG
Nature of the data set: Human SCD-1 enzymatic activity from microsomes of HepG2 cells (conversion of stearic acid into oleic acid). The format is biochemical. The settings on record: 10 μM compound; microsomal fraction of HepG2 cells; relative to carrier 0.1% DMSO; read-out: HSCD-1 (HEPG2) % inh. (10 μM). As to the method:
In vitro: Human SCD-1 enzymatic activity from microsomes of HepG2 cells after treatment with inhibitory compounds (inhibition %).
Human hepatocarcinoma HepG2 cells (ATCC, HB-8065) are grown to confluence and then trypsinized. The cell pellet is taken up in 10 mM Tris buffer (pH 7.4), saccharose (250 mM) DTT (1 mM) and then the cells are lyzed by sonication. The microsomes are obtained after centrifugation at 10,000 g for 20 minutes a 4° C. followed by centrifugation of the supernatant at 100,000 g for 60 minutes a 4° C. The pellet is taken up in 10 mM Tris buffer (pH 7.4) saccharose (250 mM) at 4° C. and the microsomal proteins are assayed and stored at −196° C. (liquid nitrogen).
The enzymatic reaction measures the conversion of stearic acid (a C18:0 fatty acid) into oleic acid (C18:1 fatty acid) by SCD-1. The enzymatic reaction is started by adding 125 μg of microsomal fraction of HepG2 cells to tubes (total reaction volume of 500 μl) containing 62 μM of stearic acid (45 μM of stearic acid and 17 μM of [^14C] stearic acid) in a phosphate buffer at 100 mM (pH 7.16) with 7.2 mM of ATP, 0.54 mM of CoA, 6 mM of MgCl2, 0.8 mM of NADH and the inhibitory compound or the carrier (0.1% DMSO). The tubes are incubated for 20 minutes at 37° C. and the enzymatic reaction is then stopped by adding KOH (12%) and saponification for 30 minutes at 80° C. After acidification (3N HCl), the fatty acids are extracted twice with ethyl ether, evaporated under nitrogen before being taken up with a methanol/dichloromethane (3:1) mixture. The product of the reaction (C18:1) is separated from the substrate of the reaction (C18:0) by HPLC (Perkin Elmer, C18 reverse phase column) coupled to a on-line radioactivity detector (FlowOne). Enzymatic activity is calculated in picomoles of stearic acid converted into oleic acid per minute and per mg of protein. For each inhibitory compound, an inhibition % is determined relatively to the reference enzymatic activity (carrier 0.1% DMSO). Sterculic acid is the reference inhibitory compound (Gomez F. E., Bauman D. E., Ntambi J. M., Fox B. G. Effects of sterculic acid on stearoyl-CoA desaturase in differentiating […] adipocytes. Biochem Biophys Res Commun. 300 316-326 (2003)).

As for `Cn1nc(N2CCN(C(=O)c3ccccc3C(F)(F)F)CC2)c(=O)[nH]c1=O` [Example 2, 2-methyl-6-[4-(2-trifluoromethyl-benzoyl)-piperazin-1-yl]-2H-[1,2,4]triazine-3,5-dione], the melting point came out at 146 °C. Further, on Human SCD-1, the inhibition at 10 µM stood at 63%.

In the case of `Cn1c(=O)[nH]nc(N2CCN(C(=O)c3ccccc3C(F)(F)F)CC2)c1=O` [Example 4, 4-methyl-6-[4-(2-trifluoromethyl-benzoyl)-piperazin-1-yl]-2H-[1,2,4]triazine-3,5-dione], the melting point amounted to 235 °C. Further, the inhibition at 10 µM on Human SCD-1 turned out to be 77%.

For `Cn1nc(N2CCN(C(=O)c3ccccc3C(F)(F)F)CC2)c(=O)n(C)c1=O` [Example 5, 2,4-dimethyl-6-[4-(2-trifluoromethyl-benzoyl)-piperazin-1-yl]-2H-[1,2,4]triazine-3,5-dione], the melting point was 76 °C. In addition, on Human SCD-1, the inhibition at 10 µM came out at 43%.

The compound `O=C(c1ccccc1C(F)(F)F)N1CCN(c2c[nH]c(=O)[nH]c2=O)CC1` [Example 6, 5-[4-(2-trifluoromethyl-benzoyl)-piperazin-1-yl]-1H-pyrimidine-2,4-dione] gave a melting point of 285 °C. Besides, on Human SCD-1, the inhibition at 10 µM stood at 73%.

`Cn1nc(N2CCC(Oc3cc(C(F)(F)F)ccc3Cl)CC2)c(=O)n(C)c1=O` [Example 29, 6-[4-(2-chloro-5-trifluoromethyl-phenoxy)-piperidin-1-yl]-2,4-dimethyl-2H-[1,2,4]triazine-3,5-dione] came in with a melting point of 160 °C. Also, the inhibition at 10 µM at Human SCD-1 is 71%.

Regarding `Cn1nc(N2CCC(Oc3cc(F)ccc3Cl)CC2)c(=O)n(C)c1=O` [Example 30, 6-[4-(2-chloro-5-fluoro-phenoxy)-piperidin-1-yl]-2,4-dimethyl-2H-[1,2,4]triazine-3,5-dione], the melting point amounted to 168 °C. Also, the inhibition at 10 µM on Human SCD-1 turned out to be 86%.

`Cc1ccccc1OC1CCN(c2nn(C)c(=O)n(C)c2=O)CC1` [Example 31, 2,4-dimethyl-6-(4-o-tolyloxy-piperidin-1-yl)-2H-[1,2,4]triazine-3,5-dione] returned a melting point of 102 °C. Also, the inhibition at 10 µM at Human SCD-1 is 73%.

On to `Cn1nc(N2CCC(Oc3ccc(F)cc3)CC2)c(=O)n(C)c1=O` [Example 33, 6-[4-(4-fluoro-phenoxy)-piperidin-1-yl]-2,4-dimethyl-2H-[1,2,4]triazine-3,5-dione], for which the melting point is 70 °C. At Human SCD-1, the inhibition at 10 µM was determined as 48%.

In turn, `Cn1nc(N2CCN(C(=O)c3cc(F)ccc3C(F)(F)F)CC2)c(=O)n(C)c1=O` [Example 42, 6-[4-(5-fluoro-2-trifluoromethyl-benzoyl)-piperazin-1-yl]-2,4-dimethyl-2H-[1,2,4]triazine-3,5-dione] came in with a melting point of 87 °C. The inhibition at 10 µM at Human SCD-1 stood at 80%.

Regarding `Cn1nc(N2CCN(Cc3ccccc3C(F)(F)F)CC2)c(=O)n(C)c1=O` [Example 55, 2,4-dimethyl-6-[4-(2-trifluoromethyl-benzyl)-piperazin-1-yl]-2H-[1,2,4]triazine-3,5-dione], the melting point is 92 °C. The inhibition at 10 µM at Human SCD-1 is 65%.

Regarding `Cn1c(=O)[nH]nc(N2CCN(Cc3ccccc3C(F)(F)F)CC2)c1=O` [Example 64, 4-methyl-6-[4-(2-trifluoromethyl-benzyl)-piperazin-1-yl]-2H-[1,2,4]triazine-3,5-dione], the melting point was determined as 205 °C. Also, the inhibition at 10 µM on Human SCD-1 was 57%.

The compound `CCCCCCCn1c(=O)[nH]nc(N2CCC(Oc3ccccc3Cl)CC2)c1=O` [Example 76, 6-[4-(2-chloro-phenoxy)-piperidin-1-yl]-4-heptyl-2H-[1,2,4]triazine-3,5-dione] gave a melting point of 95 °C. The inhibition at 10 µM at Human SCD-1 amounted to 62%.

`Cc1ccccc1-n1nc(N2CCC(Oc3ccccc3C(F)(F)F)CC2)c(=O)n(C)c1=O` [Example 79, 4-methyl-2-o-tolyl-6-[4-(2-trifluoromethyl-phenoxy)-piperidin-1-yl]-2H-[1,2,4]triazine-3,5-dione] had a melting point of 106 °C. Besides, the inhibition at 10 µM on Human SCD-1 came out at 54%.

Compound `Cn1c(=O)c(N2CCC(Oc3ccccc3C(F)(F)F)CC2)nn(-c2ccc(F)cc2)c1=O` [Example 80, 2-(4-fluoro-phenyl)-4-methyl-6-[4-(2-trifluoromethyl-phenoxy)-piperidin-1-yl]-2H-[1,2,4]triazine-3,5-dione] displayed a melting point of 111 °C. Also, the inhibition at 10 µM at Human SCD-1 worked out at 87%.

`Cn1c(=O)c(N2CCC(Oc3ccccc3C(F)(F)F)CC2)nn(-c2cccnc2)c1=O` [Example 81, 4-methyl-2-pyridin-3-yl-6-[4-(2-trifluoromethyl-phenoxy)-piperidin-1-yl]-2H-[1,2,4]triazine-3,5-dione] gave a melting point of 63 °C. Further, the inhibition at 10 µM at Human SCD-1 was found to be 98%.

With `Cn1c(=O)c(N2CCC(Oc3ccccc3C(F)(F)F)CC2)nn(-c2ccsc2)c1=O` [Example 82, 4-methyl-2-thiophen-3-yl-6-[4-(2-trifluoromethyl-phenoxy)-piperidin-1-yl]-2H-[1,2,4]triazine-3,5-dione], the melting point was 85 °C. For the same compound, the inhibition at 10 µM at Human SCD-1 worked out at 100%.

Take `Cn1c(=O)c(N2CCC(Oc3ccccc3C(F)(F)F)CC2)nn(-c2ccc(C#N)cc2)c1=O` [Example 83, 4-{4-methyl-3,5-dioxo-6-[4-(2-trifluoromethyl-phenoxy)-piperidin-1-yl]-4,5-dihydro-3H-[1,2,4]triazin-2-yl}-benzonitrile]: the melting point amounted to 72 °C. Moreover, on Human SCD-1, the inhibition at 10 µM is 79%.

For the compound `COc1ccccc1-n1nc(N2CCC(Oc3ccccc3C(F)(F)F)CC2)c(=O)n(C)c1=O` [Example 84, 2-(2-methoxy-phenyl)-4-methyl-6-[4-(2-trifluoromethyl-phenoxy)-piperidin-1-yl]-2H-[1,2,4]triazine-3,5-dione], the melting point was found to be 128 °C. Also, at Human SCD-1, the inhibition at 10 µM was found to be 53%.

As for `Cn1c(=O)[nH]nc(N2CCC(Oc3ccccc3C(F)(F)F)CC2)c1=O` [Example 85, 4-methyl-6-[4-(2-trifluoromethyl-phenoxy)-piperidin-1-yl]-2H-[1,2,4]triazine-3,5-dione], the melting point was found to be 150 °C. In addition, at Human SCD-1, the inhibition at 10 µM worked out at 95%.

The compound `Cn1c(=O)c(N2CCC(Oc3ccccc3C(F)(F)F)CC2)nn(C2CCCCC2=O)c1=O` (centres unmarked) [Example 86, 4-methyl-2-(2-oxo-cyclohexyl)-6-[4-(2-trifluoromethyl-phenoxy)-piperidin-1-yl]-2H-[1,2,4]triazine-3,5-dione] yielded a melting point of 65 °C. Further, the inhibition at 10 µM on Human SCD-1 worked out at 90%.

Compound `CCOCCOCCn1nc(N2CCC(Oc3ccccc3C(F)(F)F)CC2)c(=O)n(C)c1=O` [Example 88, 2-[2-(2-ethoxy-ethoxy)-ethyl]-4-methyl-6-[4-(2-trifluoromethyl-phenoxy)-piperidin-1-yl]-2H-[1,2,4]triazine-3,5-dione] displayed a melting point of 44 °C. In addition, on Human SCD-1, the inhibition at 10 µM is 48%.

`Cn1c(=O)c(N2CCC(Oc3ccccc3C(F)(F)F)CC2)nn(CCO)c1=O` [Example 89, 2-(2-hydroxy-ethyl)-4-methyl-6-[4-(2-trifluoromethyl-phenoxy)-piperidin-1-yl]-2H-[1,2,4]triazine-3,5-dione] came in with a melting point of 112 °C. In addition, the inhibition at 10 µM on Human SCD-1 came to 100%.
